“Also recorded” adds a separate entry of the source.
Test: Dynamic vapor sorption test
Type: physicochemical
Details: 25° C.; for weight increased finally: 95% RH; for sensitivity to moisture / hygroscopicity: dynamic vapor sorption isotherm, 0-95% RH
Experimental: 2. Parameters of dynamic vapor sorption test: The instrument: a dynamic moisture absorption analyzer (DVS Advantage, Surface Measurement System Ltd); Experimental temperature: 25° C.; Adsorption range: 0-95% relative humidity; Step interval: 5% relative humidity; Balance standard of weight gain: less than 0.01% weight change in 5 minutes; Longest time of balance: 120 minutes.

SMILES	weight increased finally	sensitivity to moisture / hygroscopicity	moisture absorbed (relative humidity 50%)	moisture absorbed (weight gain against dry weight) (relative humidity increased from 0% to 85% RH)
OC[C@H]1O[C@@H](c2ccc(Cl)c(Cc3ccc(OCC4(F)COC4)cc3)c2)[C@H](O)[C@@H](O)[C@@H]1O [compound A, (2S,3R,4R,5S,6R)-2-(4-chloro-3-(4-((3-fluorooxetan-3-yl)methoxy)benzyl)phenyl)-6-(hydroxymethyl)tetrahydro-2H-pyran-3,4,5-triol]	14.72%	sensitive to moisture	about 4.8%	
OC[C@H]1O[C@@H](c2ccc(Cl)c(Cc3ccc(OCC4(F)COC4)cc3)c2)[C@H](O)[C@@H](O)[C@@H]1O [eutectic crystal of the complex formed by compound A and L-p] [complex of (2S,3R,4R,5S,6R)-2-(4-chloro-3-(4-((3-fluorooxetan-3-yl)methoxy)benzyl)phenyl)-6-(hydroxymethyl)tetrahydro-2H-pyran-3,4,5-triol and bis(L-proline)]	about 9.967%	not very sensitive to moisture; also recorded: low hygroscopicity		2.174%

From patent publication US9738603B2, “Complex of glucose derivative and proline, crystal, preparation method and use” (SHANGHAI YINGLI PHARMACEUTICAL CO., LTD., priority 2012, dated 2017)
